EP4060021A1, “MIMETIC MICROBIOLOGICAL CULTURE MEDIUM AND USES THEREOF” (BIOFILM PHARMA, priority 2021, dated 2022)
Values after ≈ are worked out from the molar mass of the structure shown. Like-named read-outs stand apart in the source and are kept apart here.

Tested on: souches de S. aureus issues de prélèvements de plaies du pied infectées chez des patients diabétiques
Assay: Antibiotic susceptibility test (MIC, 96-well microplate, OD 600 nm) in wound medium of the invention (MP)
Format: cell-based
Details: for MIC: Staphylococcus aureus, read-out: CMI en milieu plaie MP
Source text: • La Figure 1 représente des courbes de croissance de bactéries en fonction du milieu de culture. Sur cette figure, les ordonnées correspondent au logarithme d'unités formant colonie par millilitre de milieu de culture (Log UFC/ml) et les abscisses, au temps en heure (H). La Figure 1A représente les courbes correspondant à la croissance de 2 souches de S. aureus, Newman (gauche) et SAC1 (droite), dans le milieu BHI (courbe avec indicateurs ronds) et un exemple de milieu selon l'invention (MP) (courbe avec indicateurs carrés). La Figure 1B représente les courbes correspondant à la croissance de 2 souches de P. aeruginosa, PAO1 (gauche) et PAC1 (droite), dans le milieu BHI (courbe avec indicateurs ronds) et un exemple de milieu selon l'invention (MP) (courbe avec indicateurs carrés). La Figure 1C représente les courbes correspondant à la croissance de 2 souches cliniques S. aureus SAC1 et P. aeruginosa PAC1, en coculture dans le milieu BHI (P. aeruginosa BHI ou S. aureus BHI) et un exemple de milieu selon l'invention (MP) (P. aeruginosa MP ou S. aureus MP). La mesure de différence significative, réalisée par le test de Student, entre les valeurs d'UFC/mL est exprimée, soit par (***) qui correspond à une p-value <0,001, soit par (**) qui correspond à une p-value <0,01. • La Figure 2 représente les résultats obtenus d'une détermination de l'adhésion et de la formation de biofilm par dénombrement à 24h. Sur cette figure, les ordonnées correspondent au logarithme d'unités formant colonie par millilitre de milieu de culture (Log UFC/ml). La Figure 2A représente un histogramme ou diagramme en bâton du nombre de bactéries dénombrées suite à des cultures séparées de souche S. aureus Newman (Newman), S. aureus SAC1 (SAC 1), P. aeruginosa PAO1 (PAO1) ou P. aeruginosa PAC1 (PAC1), pendant 24H dans un milieu BHI (BHI) (bâtons noirs) ou dans un exemple de milieu selon l'invention (MP) (bâtons gris). La Figure 2B montre sous forme d'histogramme le nombre de bactéries dénombrées suite à des co-cultures des souches de référence S. aureus Newman et P. aeruginosa PAO1 (PAO1/Newman), ainsi que du couple de souches cliniques S. aureus SAC1 et P. aeruginosa PAC1 (PAC 1/SAC1), pendant 24H dans un milieu BHI (BHI) (bâtons noirs) ou dans un exemple de milieu selon l'invention (MP) (bâtons gris). La mesure de différence significative, réalisée par le test de Student, entre les valeurs d'UFC est exprimée, soit par (***) qui correspond à une p-value <0,001, soit par (**) qui correspond à une p-value <0,01. • La Figure 3 représente les résultats obtenus d'une détermination de sensibilité à des antibiotiques de souches cliniques de S. aureus issues d'infections de plaies du pied chez le diabétique. Les données cliniques, anonymisées, nécessaires à l'interprétation des résultats, consistaient en l'antibiothérapie donnée au patient, ainsi que la qualification par les médecins hospitaliers d'un succès ou échec thérapeutique. La définition de succès ou échec thérapeutique est définie comme suit. Le patient commence et suit l'antibiothérapie prescrite et un deuxième prélèvement microbiologique est effectué lors du dernier jour de traitement de la 1ère antibiothérapie (± 2 jours). Ce prélèvement est utilisé pour déterminer la présence/absence du pathogène ciblé par l'antibiothérapie, S. aureus. Si ce prélèvement a montré la persistance d'un S. aureus, l'antibiothérapie est en échec. A l'inverse, en cas d'absence de S. aureus, l'antibiothérapie est associée à un succès thérapeutique. Les antibiogrammes ont été réalisés classiquement sur une durée de 18h ± 2h en accord avec les recommandations de l'EUCAST. Une gamme de l'antibiotique à tester a été réalisée. • La Figure 3A montre sous forme d'histogramme les résultats des CMI déduites d'antibiogrammes sur 11 souches testées en présence d'amoxicilline / clavulanate de potassium (commercialisé par exemple sous le nom d'Augmentin (marque déposée)).

cotrimoxazole
CMI dans un exemple de milieu selon l'invention (MP) (3 souches associées à un échec thérapeutique): 16 mg/L | CMI en milieu plaie MP (souche C01P0 01): 16 mg/L | Classification (S) ou (R) en MP (souche C01P0 01): (R) (valeur de CMI mesurée dans l'exemple de milieu selon l'invention supérieure au seuil et peuvent être classifiées comme résistantes (noté R dans le tableau 5B)) | CMI en milieu plaie MP (souche C01P0 11): 8 mg/L | Classification (S) ou (R) en MP (souche C01P0 11): (S) (avantageusement inférieur au seuil et peut être classifiée comme sensible (noté S dans le tableau 5B)) | CMI en milieu plaie MP (souche C03P0 02): 16 mg/L | Classification (S) ou (R) en MP (souche C03P0 02): (R) (valeur de CMI mesurée dans l'exemple de milieu selon l'invention supérieure au seuil et peuvent être classifiées comme résistantes (noté R dans le tableau 5B)) | CMI en milieu plaie MP (souche C03P0 07): 16 mg/L | Classification (S) ou (R) en MP (souche C03P0 07): (R) (valeur de CMI mesurée dans l'exemple de milieu selon l'invention supérieure au seuil et peuvent être classifiées comme résistantes (noté R dans le tableau 5B)) | CMI mesurée dans un exemple de milieu selon l'invention (MP) (souche associée à un succès thérapeutique): 8 mg/L

amoxicilline / clavulanate de potassium [amoxicilline/clavulanate de potassium]
CMI en milieu plaie MP (souche C01P012): 0,25 mg/L / µg/L | Classification (S) ou (R) en MP (souche C01P012): (S) (valeur de CMI mesurés dans l'exemple de milieu selon l'invention (MP), inférieure ou égale au seuil et ont été et peuvent être classifiées comme sensibles (noté S dans le tableau 5A)) | CMI en milieu plaie MP (souche C03P001): 0,5 mg/L / µg/L | Classification (S) ou (R) en MP (souche C03P001): (S) (valeur de CMI mesurés dans l'exemple de milieu selon l'invention (MP), inférieure ou égale au seuil et ont été et peuvent être classifiées comme sensibles (noté S dans le tableau 5A)) | CMI en milieu plaie MP (souche C03P008): 1 mg/L / µg/L | Classification (S) ou (R) en MP (souche C03P008): (R) (valeur de CMI mesurée dans l'exemple de milieu selon l'invention (MP) supérieure au seuil et peuvent être classifiées comme résistantes (noté R dans le tableau 5A)) | CMI en milieu plaie MP (souche C04P003): 0,25 mg/L / µg/L | Classification (S) ou (R) en MP (souche C04P003): (S) (valeur de CMI mesurés dans l'exemple de milieu selon l'invention (MP), inférieure ou égale au seuil et ont été et peuvent être classifiées comme sensibles (noté S dans le tableau 5A)) | CMI en milieu plaie MP (souche C04P005f): 0,5 mg/L / µg/L | Classification (S) ou (R) en MP (souche C04P005f): (S) (valeur de CMI mesurés dans l'exemple de milieu selon l'invention (MP), inférieure ou égale au seuil et ont été et peuvent être classifiées comme sensibles (noté S dans le tableau 5A)) | CMI en milieu plaie MP (souche C04P005i): 0,5 mg/L / µg/L | Classification (S) ou (R) en MP (souche C04P005i): (S) (valeur de CMI mesurés dans l'exemple de milieu selon l'invention (MP), inférieure ou égale au seuil et ont été et peuvent être classifiées comme sensibles (noté S dans le tableau 5A)) | CMI en milieu plaie MP (souche C04P007): 1 mg/L / µg/L | Classification (S) ou (R) en MP (souche C04P007): (R) (valeur de CMI mesurée dans l'exemple de milieu selon l'invention (MP) supérieure au seuil et peuvent être classifiées comme résistantes (noté R dans le tableau 5A)) | CMI en milieu plaie MP (souche C06P001f): 2 mg/L / µg/L | Classification (S) ou (R) en MP (souche C06P001f): (R) (valeur de CMI mesurée dans l'exemple de milieu selon l'invention (MP) supérieure au seuil et peuvent être classifiées comme résistantes (noté R dans le tableau 5A)) | CMI en milieu plaie MP (souche C06P001 i): 4 mg/L / µg/L | Classification (S) ou (R) en MP (souche C06P001 i): (R) (valeur de CMI mesurée dans l'exemple de milieu selon l'invention (MP) supérieure au seuil et peuvent être classifiées comme résistantes (noté R dans le tableau 5A)) | CMI en milieu plaie MP (souche C06P003f): 1 mg/L / µg/L | Classification (S) ou (R) en MP (souche C06P003f): (R) (valeur de CMI mesurée dans l'exemple de milieu selon l'invention (MP) supérieure au seuil et peuvent être classifiées comme résistantes (noté R dans le tableau 5A)) | CMI en milieu plaie MP (souche C06P003i): 2 mg/L / µg/L | Classification (S) ou (R) en MP (souche C06P003i): (R) (valeur de CMI mesurée dans l'exemple de milieu selon l'invention (MP) supérieure au seuil et peuvent être classifiées comme résistantes (noté R dans le tableau 5A))

CCC[C@@H]1C[C@@H](C(=O)N[C@@H]([C@H]2O[C@H](SC)[C@H](O)[C@@H](O)[C@H]2O)[C@H](C)Cl)N(C)C1 [clindamycine]
MIC (souche C01P009): 0.25 µg/mL (≈ 0.588 µM) | MIC (souche C01P010): 2 µg/mL (≈ 4.71 µM) | MIC (souche C03P003): 0.25 µg/mL (≈ 0.588 µM) | MIC (souche C03P004): 0.25 µg/mL (≈ 0.588 µM) | MIC (souche C03P005): 1 µg/mL (≈ 2.35 µM) | MIC (souche C03P009): 0.5 µg/mL (≈ 1.18 µM) | Classification (S) ou (R) en MP (souche C01P009): (S) (valeur de CMI mesurée dans un milieu plaie, exemple de milieu selon l'invention (MP) inférieure ou égale au seuil déterminé et peuvent être classifiées comme sensibles (noté S dans le tableau 5C)) | Classification (S) ou (R) en MP (souche C01P010): (R) (valeur de CMI mesurée dans un milieu plaie, exemple de milieu selon l'invention (MP), supérieure au seuil et peuvent être classifiées comme résistantes (noté R dans le tableau 5C)) | Classification (S) ou (R) en MP (souche C03P003): (S) (valeur de CMI mesurée dans un milieu plaie, exemple de milieu selon l'invention (MP) inférieure ou égale au seuil déterminé et peuvent être classifiées comme sensibles (noté S dans le tableau 5C)) | Classification (S) ou (R) en MP (souche C03P004): (S) (valeur de CMI mesurée dans un milieu plaie, exemple de milieu selon l'invention (MP) inférieure ou égale au seuil déterminé et peuvent être classifiées comme sensibles (noté S dans le tableau 5C)) | Classification (S) ou (R) en MP (souche C03P005): (R) (valeur de CMI mesurée dans un milieu plaie, exemple de milieu selon l'invention (MP), supérieure au seuil et peuvent être classifiées comme résistantes (noté R dans le tableau 5C)) | Classification (S) ou (R) en MP (souche C03P009): (S) (valeur de CMI mesurée dans un milieu plaie, exemple de milieu selon l'invention (MP) inférieure ou égale au seuil déterminé et peuvent être classifiées comme sensibles (noté S dans le tableau 5C))
